Assay results reported in PubChem BioAssay (NCI).
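Tested at 5 concentrations; 48 h exposure; 96-well plates; endpoints linearly interpolated, else capped at highest concentration. TGI is the concentration that stops growth completely.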

Key:
Assay in all cases: NCI tumour cell line growth inhibition, 48 h
786-0 renal = tested on: 786-0 renal
A498 renal = tested on: A498 renal
A549 NSCLC = tested on: A549 NSCLC
ACHN renal = tested on: ACHN renal
BT-549 breast = tested on: BT-549 breast
CAKI-1 renal = tested on: CAKI-1 renal
CCRF-CEM leukemia = tested on: CCRF-CEM leukemia
COLO 205 colon = tested on: COLO 205 colon
DU-145 prostate = tested on: DU-145 prostate
EKVX NSCLC = tested on: EKVX NSCLC
HCC-2998 colon = tested on: HCC-2998 colon
HCT-116 colon = tested on: HCT-116 colon
HCT-15 colon = tested on: HCT-15 colon
HOP-62 NSCLC = tested on: HOP-62 NSCLC
HOP-92 NSCLC = tested on: HOP-92 NSCLC
HS 578T breast = tested on: HS 578T breast
IGROV1 ovarian = tested on: IGROV1 ovarian
K-562 leukemia = tested on: K-562 leukemia
KM12 colon = tested on: KM12 colon
LOX IMVI melanoma = tested on: LOX IMVI melanoma
M14 melanoma = tested on: M14 melanoma
MALME-3M melanoma = tested on: MALME-3M melanoma
MCF7 breast = tested on: MCF7 breast
MDA-MB-231 breast = tested on: MDA-MB-231 breast
MDA-MB-435 = tested on: MDA-MB-435
MDA-N = tested on: MDA-N
MOLT-4 leukemia = tested on: MOLT-4 leukemia
NCI-H226 lung = tested on: NCI-H226 lung
NCI-H23 lung = tested on: NCI-H23 lung
NCI-H460 lung = tested on: NCI-H460 lung
NCI-H522 lung = tested on: NCI-H522 lung
NCI/ADR-RES ovarian = tested on: NCI/ADR-RES ovarian
OVCAR-3 ovarian = tested on: OVCAR-3 ovarian
OVCAR-4 ovarian = tested on: OVCAR-4 ovarian
OVCAR-5 ovarian = tested on: OVCAR-5 ovarian
OVCAR-8 ovarian = tested on: OVCAR-8 ovarian
PC-3 prostate = tested on: PC-3 prostate
RPMI-8226 leukemia = tested on: RPMI-8226 leukemia
RXF 393 renal = tested on: RXF 393 renal
SF-268 CNS = tested on: SF-268 CNS
SF-295 CNS = tested on: SF-295 CNS
SK-MEL-2 melanoma = tested on: SK-MEL-2 melanoma
SK-MEL-28 melanoma = tested on: SK-MEL-28 melanoma
SK-MEL-5 melanoma = tested on: SK-MEL-5 melanoma
SK-OV-3 ovarian = tested on: SK-OV-3 ovarian
SN12C renal = tested on: SN12C renal
SNB-19 CNS = tested on: SNB-19 CNS
SNB-75 CNS = tested on: SNB-75 CNS
SR leukemia = tested on: SR leukemia
SW-620 colon = tested on: SW-620 colon
T-47D breast = tested on: T-47D breast
TK-10 renal = tested on: TK-10 renal
U251 CNS = tested on: U251 CNS
UACC-257 melanoma = tested on: UACC-257 melanoma
UACC-62 melanoma = tested on: UACC-62 melanoma
UO-31 renal = tested on: UO-31 renal
HL-60(TB) leukemia = tested on: HL-60(TB) leukemia
HT29 colon = tested on: HT29 colon
SF-539 CNS = tested on: SF-539 CNS

`CN1CCN(c2cc3nc(-c4ccc(Cl)cc4)[nH]c3cc2F)CC1` was tested, and the TGI (786-0 renal) was 67.2 µM, the TGI (A498 renal) was 47.4 µM and the TGI (A549 NSCLC) was > 59 µM. The TGI (ACHN renal) was 29.8 µM, the TGI (BT-549 breast) was 31.1 µM and the TGI (CAKI-1 renal) was 73.4 µM. For the same molecule, the TGI (CCRF-CEM leukemia) was 82.8 µM, the TGI (COLO 205 colon) was 51.1 µM and the TGI (DU-145 prostate) was 83.3 µM. For the same molecule, the TGI (EKVX NSCLC) was 72.3 µM, the TGI (HCC-2998 colon) was 16.7 µM and the TGI (HCT-116 colon) was > 54.4 µM. For the same molecule, the TGI (HCT-15 colon) was 17.9 µM, the TGI (HOP-62 NSCLC) was 30.6 µM and the TGI (HOP-92 NSCLC) was > 70.4 µM. The TGI (HS 578T breast) was 42.6 µM, the TGI (IGROV1 ovarian) was 36.1 µM and the TGI (K-562 leukemia) was 28.7 µM. For the same molecule, the TGI (KM12 colon) was > 45.2 µM, the TGI (LOX IMVI melanoma) was > 65.6 µM and the TGI (M14 melanoma) was 8.4 µM. For the same molecule, the TGI (MALME-3M melanoma) was 23.4 µM, the TGI (MCF7 breast) was > 45.2 µM and the TGI (MDA-MB-231 breast) was 60.8 µM. The TGI (MDA-MB-435) was 32.1 µM, the TGI (MDA-N) was 50.4 µM and the TGI (MOLT-4 leukemia) was 41.1 µM. For the same molecule, the TGI (NCI-H226 lung) was 33.9 µM, the TGI (NCI-H23 lung) was 34.2 µM and the TGI (NCI-H460 lung) was > 53.9 µM. It also gave a TGI (NCI-H522 lung) of 32 µM, a TGI (NCI/ADR-RES ovarian) of 67.6 µM and a TGI (OVCAR-3 ovarian) of 25.7 µM. For the same molecule, the TGI (OVCAR-4 ovarian) was > 62.7 µM, the TGI (OVCAR-5 ovarian) was 48.9 µM and the TGI (OVCAR-8 ovarian) was > 100 µM. It also gave a TGI (PC-3 prostate) of 40.8 µM, a TGI (RPMI-8226 leukemia) of 41.4 µM and a TGI (RXF 393 renal) of 30.9 µM. It also gave a TGI (SF-268 CNS) of 51.3 µM, a TGI (SF-295 CNS) of 28.8 µM and a TGI (SK-MEL-2 melanoma) of 34.5 µM. The TGI (SK-MEL-28 melanoma) was 30.8 µM, the TGI (SK-MEL-5 melanoma) was 35.5 µM and the TGI (SK-OV-3 ovarian) was 59.5 µM. For the same molecule, the TGI (SN12C renal) was > 100 µM, the TGI (SNB-19 CNS) was > 81.8 µM and the TGI (SNB-75 CNS) was 50.1 µM. For the same molecule, the TGI (SR leukemia) was > 100 µM, the TGI (SW-620 colon) was > 64.4 µM and the TGI (T-47D breast) was 65.7 µM. For the same molecule, the TGI (TK-10 renal) was 15.4 µM, the TGI (U251 CNS) was > 75.9 µM and the TGI (UACC-257 melanoma) was 26.2 µM. For the same molecule, the TGI (UACC-62 melanoma) was 18.9 µM and the TGI (UO-31 renal) was 20.6 µM.
In the case of `COc1ccc(-c2sc(Br)c3c2C(=O)C2OC(=O)NC32)cc1OC` (stereo not drawn), the TGI (786-0 renal) is reported as > 100 µM, the TGI (A498 renal) is reported as > 100 µM and the TGI (A549 NSCLC) is reported as > 100 µM. The TGI (ACHN renal) was > 100 µM, the TGI (BT-549 breast) was > 100 µM and the TGI (CAKI-1 renal) was > 100 µM. The TGI (CCRF-CEM leukemia) was > 100 µM, the TGI (COLO 205 colon) was > 100 µM and the TGI (DU-145 prostate) was > 100 µM. For the same molecule, the TGI (EKVX NSCLC) was > 100 µM, the TGI (HCT-116 colon) was > 100 µM and the TGI (HCT-15 colon) was > 100 µM. For the same molecule, the TGI (HL-60(TB) leukemia) was > 100 µM, the TGI (HOP-62 NSCLC) was > 100 µM and the TGI (HOP-92 NSCLC) was > 100 µM. The TGI (HS 578T breast) was > 100 µM, the TGI (HT29 colon) was > 100 µM and the TGI (IGROV1 ovarian) was > 100 µM. The TGI (K-562 leukemia) was > 100 µM, the TGI (KM12 colon) was > 100 µM and the TGI (LOX IMVI melanoma) was > 100 µM. The TGI (M14 melanoma) was > 100 µM, the TGI (MALME-3M melanoma) was > 100 µM and the TGI (MCF7 breast) was > 100 µM. The TGI (MDA-MB-231 breast) was > 100 µM, the TGI (MDA-MB-435) was > 100 µM and the TGI (MDA-N) was > 100 µM. For the same molecule, the TGI (MOLT-4 leukemia) was > 100 µM, the TGI (NCI-H226 lung) was > 100 µM and the TGI (NCI-H23 lung) was > 100 µM. The TGI (NCI-H460 lung) was > 100 µM, the TGI (NCI-H522 lung) was > 100 µM and the TGI (NCI/ADR-RES ovarian) was > 100 µM. The TGI (OVCAR-3 ovarian) was > 100 µM, the TGI (OVCAR-4 ovarian) was > 100 µM and the TGI (OVCAR-5 ovarian) was > 100 µM. The TGI (OVCAR-8 ovarian) was > 100 µM, the TGI (PC-3 prostate) was > 100 µM and the TGI (RPMI-8226 leukemia) was > 100 µM. The TGI (RXF 393 renal) was > 100 µM, the TGI (SF-268 CNS) was > 100 µM and the TGI (SF-295 CNS) was > 100 µM. For the same molecule, the TGI (SF-539 CNS) was > 100 µM, the TGI (SK-MEL-2 melanoma) was > 100 µM and the TGI (SK-MEL-5 melanoma) was > 100 µM. For the same molecule, the TGI (SK-OV-3 ovarian) was > 100 µM, the TGI (SN12C renal) was > 100 µM and the TGI (SNB-19 CNS) was > 100 µM. For the same molecule, the TGI (SNB-75 CNS) was > 100 µM, the TGI (SR leukemia) was > 100 µM and the TGI (SW-620 colon) was > 100 µM. For the same molecule, the TGI (T-47D breast) was > 100 µM, the TGI (TK-10 renal) was > 100 µM and the TGI (U251 CNS) was > 100 µM. The TGI (UACC-257 melanoma) was > 100 µM, the TGI (UACC-62 melanoma) was > 100 µM and the TGI (UO-31 renal) was > 100 µM.
